Like-named read-outs stand apart in the source and are kept apart here.
Assays:
CSF1R [1] = molecular target: T1, CSF1R (Homo sapiens, UniProt P07333); test: Cellular CSF1R inhibition ELISA (p-CSF1R, M-CSF-induced) using THP-1 cells; assay type: cell-based; set-up: THP-1 cells act as a model for human monocytes; endogenous in cells; host or cells: THP-1
From the text: The normal proto-oncogene c-fms encodes the macrophage growth factor (M-CSF, also known as CSF1) receptor involved in growth, survival, and differentiation along the monocyte-macrophage lineage. THP-1 cells act as a model for human monocytes. It confirms that an increased phosphorylation of CSF1R (p-CSF1R) can be observed, when induced by CSF1R ligand, CSF1.
The THP-1 cells should be maintained from 5×10^5 to 1×10^6 cells/ml in the cell culture flask. After centrifugation, the supernatant is aspirated. The cell pellet is re-suspended with pre-warmed growth medium (RPMI1640, 10% FBS, 0.05 mM 2-Mercaptoethanol) and cells are separated by pipetting 6 times up and down with a 10 ml serological pipette. The cell suspension has to be diluted to a final concentration of 2×10^5 cells per 80 μl with pre-warmed growth medium. 80 μl of cell suspension is added to all wells of plates. Cell-plates are incubated at 37° C./5% CO2. Dissolve compound in 100% DMSO to make 10 mM stock solutions (Aliquots stored in the Nitrogen Cabinet). Dilute 10 mM compounds solutions for 2-fold in 100% DMSO to get 5 mM solutions (10 μl+10 μl DMSO), and then make a 3-fold serial dilution (10 μl+20 μl DMSO) for 10 doses. For reference compounds: Dilute 10 mM compounds solutions for 20-fold in 100% DMSO to get 0.5 mM solutions (2 μl+38 μl DMSO), and then make a 3-fold serial dilution (10 μl+20 μl DMSO) for 10 doses. Transfer 2 μl diluted compounds to 198 μl medium to get solution of 50 μM concentration at top point for compounds and 5 μM for reference compounds. Then transfer 20 μl cpd solution into assay plate (Duplicate wells). The plate is incubated at 37° C./5% CO2 for 24 h. The final concentration of DMSO in all wells is […]. Reconstitute human M-CSF at 50 μg/ml in sterile water. (Aliquots stored in −80° C.). 1:1000 dilute human M-CSF by fresh medium to 50 ng/ml. After 24 h compounds treatment, transfer 25 μl diluted human M-CSF (50 ng/ml) to cell plate according to the plate map. The final concentration of human M-CSF in all wells is 10 ng/ml.
The plates is incubated at 37° C./5% CO2 for 5 min. In the beginning the appropriate amount of lysis buffer complete (100 μL/well) is prepared and stored on ice. After 5 min human M-CSF stimulation, wash plates once with 300 μL ice cold PBS. Then 100 μl lysis buffer is added to each well. The plate is shacked for 40 min at 4° C. Plates can now be stored at −20° C. After equilibrate the micro-well strips at room temperature, break off the required number of micro-wells. Place the micro-wells in the strip holder. Unused micro-wells must be resealed and stored at 4° C. immediately. Add 90 μl of cell lysate to the appropriate well. Seal with tape and press firmly onto top of micro-wells. Incubate the plate for 2 h at 37° C. Gently remove the tape and wash wells 4 times with 1× Wash Buffer, 200 μl each time for each well. Add 100 μl of reconstituted Detection Antibody (green color) to each well. Seal with tape and incubate the plate at 37° C. for 1 h. Repeat wash procedure. Add 100 μl of reconstituted HRP-Linked secondary antibody to each well. Seal with tape and incubate the plate for 30 min at 37° C. Repeat wash procedure. Add 100 μl of TMB Substrate to each well. Seal with tape and incubate the plate for 10 min at 37° C. or 30 min at 25° C. Calculations and Formulas: The following calculations and formulas are used for data analysis using XL Fit software: The curve fitting was made using the Sigmoidal Dose-Response Model (Fit model, 205).

CSF1R [2] = molecular target: T1, CSF1R; test: KINOMEscan competition binding assay for CSF1R; set-up: DNA tag for qPCR (not a peptide); host or cells: E. coli/T7 phage or HEK-293; conditions: @ 0.1 uM
Experimental: KINOMEscan™ is based on a competition binding assay that quantitatively measures the ability of a compound to compete with an immobilized, active-site directed ligand. The assay is performed by combining three components: DNA-tagged kinase; immobilized ligand; and a test compound. The ability of the test compound to compete with the immobilized ligand is measured via quantitative PCR of the DNA tag.
E. coli were grown to log-phase and infected with T7 phage and incubated with shaking at 32° C. until lysis. The lysates were centrifuged and filtered to remove cell debris. The remaining kinases were produced in HEK-293 cells and subsequently tagged with DNA for qPCR detection. Streptavidin-coated magnetic beads were treated with biotinylated small molecule ligands for 30 minutes at room temperature to generate affinity resins for kinase assays. The liganded beads were blocked with excess biotin and washed with blocking buffer (SeaBlock (Pierce), 1% BSA, 0.05% Tween 20, 1 mM DTT) to remove unbound ligand and to reduce non-specific binding. Binding reactions were assembled by combining kinases, liganded affinity beads, and test compounds in 1× binding buffer (20% SeaBlock, 0.17×PBS, 0.05% Tween 20, 6 mM DTT). Test compounds were prepared as 111× stocks in 100% DMSO. Kds were determined using an 11-point 3-fold compound dilution series with three DMSO control points. All compounds for Kd measurements are distributed by acoustic transfer (non-contact dispensing) in 100% DMSO. The compounds were then diluted directly into the assays such that the final concentration of DMSO was 0.9%. In case of % inhibition, test compounds were prepared as 40× stocks in 100% DMSO and directly diluted into the assay. All reactions performed in polypropylene 384-well plate. Each was a final volume of 0.02 ml. The assay plates were incubated at room temperature with shaking for 1 hour and the affinity beads were washed with wash buffer (1×PBS, 0.05% Tween 20). The beads were then re-suspended in elution buffer (1×PBS, 0.05% Tween 20, 0.5 μM non-biotinylated affinity ligand) and incubated at room temperature with shaking for 30 minutes. The kinase concentration in the eluates was measured by qPCR.
The CSF1R kinase binding activity results are shown in tables 1 (Kd) and 2 (percent inhibition at a concentration of 0.1 uM of compound to be tested).
Binding constants (Kds) were calculated with a standard dose-response curve using the Hill equation: […]
The Hill Slope was set to −1.
Curves were fitted using a non-linear least square fit with the Levenberg-Marquardt algorithm.
Binding % inhibition were calculated with as below:
[formula] • negative control=DMSO (100% Ctrl) • positive control=control compound (0% Ctrl)

[3] = read-out: CSF1R kinase binding activity, Percent (%) inhibition
[4] = read-out: CSF1R kinase binding activity, Range

T1 sequence (P07333 20-972): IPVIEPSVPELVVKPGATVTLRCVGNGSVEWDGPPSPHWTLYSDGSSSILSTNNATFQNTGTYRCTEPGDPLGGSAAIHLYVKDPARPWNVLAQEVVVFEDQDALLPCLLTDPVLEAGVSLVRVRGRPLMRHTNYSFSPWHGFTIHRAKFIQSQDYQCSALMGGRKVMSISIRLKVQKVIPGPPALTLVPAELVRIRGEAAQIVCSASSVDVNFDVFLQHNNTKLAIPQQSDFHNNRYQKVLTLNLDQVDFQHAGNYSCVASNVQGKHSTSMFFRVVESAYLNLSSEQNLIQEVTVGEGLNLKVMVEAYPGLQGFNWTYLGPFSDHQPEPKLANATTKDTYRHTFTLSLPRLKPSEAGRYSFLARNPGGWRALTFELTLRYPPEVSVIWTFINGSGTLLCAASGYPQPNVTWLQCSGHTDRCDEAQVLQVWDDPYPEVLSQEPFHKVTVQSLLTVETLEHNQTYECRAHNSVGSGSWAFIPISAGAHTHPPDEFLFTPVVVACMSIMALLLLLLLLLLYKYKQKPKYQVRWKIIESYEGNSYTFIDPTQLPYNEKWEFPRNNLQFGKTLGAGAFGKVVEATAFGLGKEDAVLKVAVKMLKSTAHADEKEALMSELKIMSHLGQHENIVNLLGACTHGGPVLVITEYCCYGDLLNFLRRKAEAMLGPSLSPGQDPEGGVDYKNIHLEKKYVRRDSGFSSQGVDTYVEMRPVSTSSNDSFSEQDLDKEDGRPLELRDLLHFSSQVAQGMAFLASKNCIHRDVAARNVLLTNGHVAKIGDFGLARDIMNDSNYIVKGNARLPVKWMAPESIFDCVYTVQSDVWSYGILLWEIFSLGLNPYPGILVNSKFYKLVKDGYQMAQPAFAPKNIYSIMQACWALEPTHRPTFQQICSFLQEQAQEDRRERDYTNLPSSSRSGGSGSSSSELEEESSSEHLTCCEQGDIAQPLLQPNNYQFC

| SMILES | IC50 (CSF1R [1]) | inhibition at 0.1 µM (CSF1R [2]; [3]) | inhibition at 0.1 µM (CSF1R [2]; [4]) |
| --- | --- | --- | --- |
| COc1cc2nccc(Oc3ccc(NC(=O)c4nn(CCOC5CC5)cc4OCC(F)(F)F)c(F)c3)c2cc1OC [Compound 115] | 0.5 to 1 µM | 94% | ≥ 80% |
| COc1cc2nccc(Oc3ccc(NC(=O)c4nn(CCOC5CC5)cc4OCC(F)(F)F)cc3C)c2cc1OC [Compound 117] | < 0.5 µM | 94% | ≥ 80% |
| CNCCn1cc(OCC(F)(F)F)c(C(=O)Nc2ccc(Oc3ccnc4cc(OC)c(OC)cc34)cc2)n1 [Compound 119] | ≥ 1 µM | 9% | < 50% |
| COc1cc2nccc(Oc3ccc(NC(=O)c4nn(C5CCCC5)cc4OCC(F)(F)F)nn3)c2cc1OC [Compound 121] | < 0.5 µM | 98% | ≥ 80% |
| COc1cc2nccc(Oc3ccc(NC(=O)c4nn(C5CCNC5)cc4OCC(F)(F)F)nn3)c2cc1OC (stereo not drawn) [Compound 122] | ≥ 1 µM | 19% | < 50% |
| COc1cc2nccc(Oc3ccc(NC(=O)c4nn(CCN)cc4OCC(F)(F)F)nn3)c2cc1OC [Compound 125] | ≥ 1 µM | 38% | < 50% |
| COCCn1cc(OCC(F)(F)F)c(C(=O)Nc2ccc(Oc3ccnc4cc(OC)c(OC)cc34)nn2)n1 [Compound 126] | ≥ 1 µM | 78% | 50 to 80% |
| CNCCn1cc(OCC(F)(F)F)c(C(=O)Nc2ccc(Oc3ccnc4cc(OC)c(OC)cc34)nn2)n1 [Compound 127] | ≥ 1 µM | 38% | < 50% |
| COc1cc2nccc(Oc3ccc(NC(=O)c4nn(CCO)cc4OCC(F)(F)F)cn3)c2cc1OC [Compound 129] | ≥ 1 µM | 24% | < 50% |
| COc1cc2nccc(Oc3ccc(NC(=O)c4nn(CCOC5CC5)cc4OCC(F)(F)F)cn3)c2cc1OC [Compound 130] | ≥ 1 µM | 41% | < 50% |
| COc1cc2nccc(Oc3ccc(NC(=O)c4nn(C5CCNC5)cc4OCC(F)(F)F)cn3)c2cc1OC (stereo not drawn) [Compound 132] | ≥ 1 µM | 16% | < 50% |
| COc1cc2nccc(Oc3ccc(NC(=O)c4nn(CC5COC5)cc4OCC(F)(F)F)cn3)c2cc1OC [Compound 134] | ≥ 1 µM | 18% | < 50% |
| COc1cc2nccc(Oc3ccc(NC(=O)c4nn(CCN)cc4OCC(F)(F)F)cn3)c2cc1OC [Compound 135] | ≥ 1 µM | 4% | < 50% |
| COc1cc2nccc(Oc3ccc(NC(=O)c4nn(CC(C)O)cc4OCC(F)(F)F)cn3)c2cc1OC (stereo not drawn) [Compound 136] | ≥ 1 µM | 23% | < 50% |

Continued, values first:

| IC50 (CSF1R [1]) | inhibition at 0.1 µM (CSF1R [2]; [3]) | inhibition at 0.1 µM (CSF1R [2]; [4]) | SMILES |
| --- | --- | --- | --- |
| 0.5 to 1 µM | 97% | ≥ 80% | COc1cc2nccc(Oc3ccc(NC(=O)c4nn(C5CC5)cc4OCC(F)(F)F)nn3)c2cc1OC [Compound 112] |
| < 0.5 µM | 82% | ≥ 80% | COc1cc2nccc(Oc3ccc(NC(=O)c4nn(C5CC5)cc4OCCF)nn3)c2cc1OC [Compound 113] |
| ≥ 1 µM | 27% | < 50% | CCCn1cc(OCC(F)(F)F)c(C(=O)Nc2ccc(Oc3ccnc4cc(OC)c(OC)cc34)c(C(F)(F)F)c2)n1 [Compound 114] |
| 0.5 to 1 µM | 93% | ≥ 80% | COc1cc2nccc(Oc3ccc(NC(=O)c4nn(CCOC5CC5)cc4OCC(F)(F)F)cc3F)c2cc1OC [Compound 116] |
| 0.5 to 1 µM | 93% | ≥ 80% | COc1cc2nccc(Oc3ccc(NC(=O)c4nn(CCOC5CC5)cc4OCC(F)(F)F)cc3)c2cc1OC [Compound 118] |
| 0.5 to 1 µM | 95% | ≥ 80% | COc1cc2nccc(Oc3ccc(NC(=O)c4nn(CCOC5CC5)cc4OCC(F)(F)F)nn3)c2cc1OC [Compound 120] |
| ≥ 1 µM | 72% | 50 to 80% | COc1cc2nccc(Oc3ccc(NC(=O)c4nn(CC5COC5)cc4OCC(F)(F)F)nn3)c2cc1OC [Compound 123] |
| 0.5 to 1 µM | 95% | ≥ 80% | COc1cc2nccc(Oc3ccc(NC(=O)c4nn(CC(C)C)cc4OCC(F)(F)F)nn3)c2cc1OC [Compound 124] |
| < 0.5 µM | 94% | ≥ 80% | COc1cc2nccc(Oc3ccc(NC(=O)c4nn(C5CCOC5)cc4OCC(F)(F)F)nn3)c2cc1OC (stereo not drawn) [Compound 128] |
| ≥ 1 µM | 21% | < 50% | COc1cc2nccc(Oc3ccc(NC(=O)c4nn(C5CCCC5)cc4OCC(F)(F)F)cn3)c2cc1OC [Compound 131] |
| ≥ 1 µM | 9% | < 50% | COc1cc2nccc(Oc3ccc(NC(=O)c4nn(C5CCN(C)C5)cc4OCC(F)(F)F)cn3)c2cc1OC (stereo not drawn) [Compound 133] |
| ≥ 1 µM | 6% | < 50% | CNCCn1cc(OCC(F)(F)F)c(C(=O)Nc2ccc(Oc3ccnc4cc(OC)c(OC)cc34)nc2)n1 [Compound 137] |
| ≥ 1 µM | 9% | < 50% | COc1cc2nccc(Oc3ccc(NC(=O)c4nn(C5CCOC5)cc4OCC(F)(F)F)cn3)c2cc1OC (stereo not drawn) [Compound 138] |
